Source: patent US11504363B2, “Method of treating cancer and bone cancer pain” (Exelixis, Inc., priority 2011, dated 2022)

Key:
[1] = system: CRPC patients with evidence of bone metastases on bone scan; experiment: Phase 2 adaptive trial NCT00940225, first three CRPC patients with bone metastases (Case Study 1); format: in vivo, human
Experimental: In 2000, local disease recurrence was treated with radiation therapy. […] CAB with leuprolide and bicalutamide was initiated.

[2] = system: xenograft tumor models; experiment: Xenograft tumor models; details: in vivo
[3] = system: differentiated thyroid cancer, bone metastasis to the skull; experiment: Phase 1 drug-drug trial, differentiated thyroid cancer with bone metastasis (Case Study 7); format: in vivo, human; details: one patient, after 9 weeks of treatment
[4] = system: pancreatic neuroendocrine tumor model; experiment: Murine pancreatic neuroendocrine tumor model; details: mouse, in vivo
[5] = system: breast cancer with bone metastases; experiment: Randomized discontinuation study, breast cancer with bone metastases (Case Study 6); format: in vivo, human; details: of 10 evaluable for bone scan resolution (forty percent)
[6] = system: melanoma with bone metastases; experiment: Randomized discontinuation study, melanoma with bone metastases (Case Study 5); format: in vivo, human; details: 39 of 65 patients
[7] = system: CRPC patients with bone metastases; experiment: Phase 2 adaptive randomized discontinuation trial (RDT), Case Study 2; format: in vivo, human; details: for patients reporting improvements in bone pain: baseline bone pain; for patients achieving tumor regression / patients experiencing pain relief / patients reducing or eliminating need for narcotic analgesics / patients with marked declines in markers of bone turnover / patients free of disease progression at month 6: post hoc
Excerpt: Data on bone pain and narcotic use, as assessed by the investigator, were collected retrospectively.

[8] = Phase 1 clinical study, tolerability; format: in vivo, human; details: most common adverse events: fatigue, diarrhea, anorexia, rash, palmar-plantar erythrodysesthesia
[9] = system: renal cell carcinoma with bone metastases; experiment: Phase I trial, renal cell carcinoma with bone metastases (Case Study 4); format: in vivo, human
[10] = patients with bone scan resolution
[11] = patients without bone scan resolution

For `COc1cc2nccc(Oc3ccc(NC(=O)C4(C(=O)Nc5ccc(F)cc5)CC4)cc3)c2cc1OC` [Compound 1, N-(4-{[6,7-bis(methyloxy)quinolin-4-yl]oxy}phenyl)-N′-(4-fluorophenyl)cyclopropane-1,1-dicarboxamide], which “Bone scan (best response)” value ([1]; Patient 1) is on record?
The value was “Complete resolution”.

What about the “Hemoglobin (best response, change)” value ([1]; Patient 1) of the same molecule?
Its value is “+1.4 g/dL”.

And the “PSA (best response, change)” value ([1]; Patient 1)?
The value was −78%.

What about the “Pain (best response)” value ([1]; Patient 1) of the same molecule?
The value was “Improvement”.

What about the “tALP (best response, change)” value ([1]; Patient 1) of the same molecule?
Its value is −77%.

And the “radiotracer uptake by bone metastases on bone scan” value ([1]; Patient 1, Week 6)?
Its value is “dramatic decrease”.

And the “bone lesions on bone scan” value ([1]; Patient 1, Week 12, stable through Week 18)?
Its value is “near complete resolution”.

And the “adverse event leading to withdrawal” value ([1]; Patient 1, Week 18)?
The value was “Grade 3 diarrhea”.

What about the bone pain ([1]; Patient 1, four weeks after start) of the same molecule?
Its bone pain is “significant reduction”.

And the “Bone scan (best response)” value ([1]; Patient 2)?
Its value is “Improvement”.

What about the “Hemoglobin (best response, change)” value ([1]; Patient 2) of the same molecule?
Its value is “+1.8 g/dL”.

What about the “PSA (best response, change)” value ([1]; Patient 2) of the same molecule?
The value was “+61%”.

What about the “Pain (best response)” value ([1]; Patient 2) of the same molecule?
The value was “Pain-free”.

And the “tALP (best response, change)” value ([1]; Patient 2)?
Its value is −6%.

And the bone pain ([1]; Patient 2, Week 4)?
The bone pain was “reduction in bone pain”.

And the “radiotracer uptake by bone lesions on bone scan” value ([1]; Patient 2, Week 6)?
Its value is “slight flair”.

What about the “hemoglobin increase compared with baseline” value ([1]; Patient 2, Week 12) of the same molecule?
Its value is 1.8 g/dL.

What about the “radiotracer uptake on bone scan” value ([1]; Patient 2, Week 12) of the same molecule?
The value was “substantial reduction”.

What about the PSA peak ([1]; Patient 2, by Week 16, placebo from Week 12, crossed over to Compound 1 at Week 15) of the same molecule?
The PSA peak was ~6 fold of baseline.

What about the PSA ([1]; Patient 2, by Week 18, subsequent to crossing over to Compound 1 from placebo) of the same molecule?
The PSA was 2 fold of baseline.

And the “Bone scan (best response)” value ([1]; Patient 3)?
The value was “Near resolution”.

And the “Hemoglobin (best response, change)” value ([1]; Patient 3)?
The value was “+2.2 g/dL”.

What about the “PSA (best response, change)” value ([1]; Patient 3) of the same molecule?
Its value is −57%.

And the “Pain (best response)” value ([1]; Patient 3)?
The value was “Pain-free”.

And the “tALP (best response, change)” value ([1]; Patient 3)?
The value was −77%.

And the “hemoglobin increase compared with baseline” value ([1]; Patient 3, Week 2)?
The value was 2.2 g/dL.

And the “radiotracer uptake on bone scan” value ([1]; Patient 3, Week 6)?
Its value is “dramatic reduction”.

What about the “bone lesions on bone scan” value ([1]; Patient 3, Week 12) of the same molecule?
Its value is “complete resolution of bone lesions”.

What about the pain ([1]; Patient 3, after three weeks) of the same molecule?
Its pain is “complete resolution of pain”.

And the “tumor effect in xenograft tumor models” value [2]?
The value was “causes tumor regression”.

And the “response of skull bone metastasis as judged by MRI” value [3]?
Its value is “dramatic response”.

What about the overall survival [4] of the same molecule?
Its overall survival is “substantially improves”.

And the “tumor invasiveness and metastasis” value [4]?
Its value is “significantly reduces”.

What about the “patients with tumor shrinkage based on bone scan analysis” value [5] of the same molecule?
Its value is 4 patients.

What about the “patients with tumor shrinkage based on bone scan analysis” value [6] of the same molecule?
The value was 60%.

And the “patients able to decrease or discontinue narcotic medication for bone pain” value ([7]; 47 of 67 patients on narcotic analgesics at baseline)?
The value was 70%.

And the “patients with pain improvement” value ([7]; 56 of 83 patients with bone metastases and bone pain at baseline, at either Week 6 or 12)?
The value was 68%.

What about the “patients with resolution or stabilization of metastatic bone lesions on bone scan” value ([7]; 82 of 108 evaluable patients) of the same molecule?
The value was 76%.

What about the “hemoglobin levels in anemic patients” value ([7]; anemic patients) of the same molecule?
Its value is “Durable increases”.

And the “patients reporting improvements in bone pain” value ([7]; complete resolution by bone scan (n=10))?
Its value is 80%.

And the “patients reporting improvements in bone pain” value ([7]; partial resolution by bone scan (n=32))?
Its value is 84%.

And the “patients reporting improvements in bone pain” value ([7]; stabilization of disease by bone scan (n=13))?
The value was 38%.

And the “median PFS” value ([7]; docetaxel-naïve patients (95% CI 24, upper limit not yet reached))?
The value was 24 weeks.

What about the “median PFS” value ([7]; docetaxel-pretreated patients (95% CI 18, 33)) of the same molecule?
Its value is 29 weeks.

What about the “patients with stable disease (SD) on bone scan” value ([7]; independent reviewer, 23 of n=108) of the same molecule?
Its value is 21%.

And the “subjects with partial or complete resolution of bone scan” value ([7]; independent reviewer, 82 of n=108)?
The value was 76%.

What about the “patients with progressive disease in bone as best assessment” value ([7]; independent reviewer, three of n=108) of the same molecule?
The value was 3%.

And the “median PFS” value ([7]; overall population excluding those randomized to placebo, n=154)?
The value was 29 weeks.

What about the “patients achieving tumor regression” value [7, 10] of the same molecule?
The value was 78%.

What about the “patients experiencing pain relief” value [7, 10] of the same molecule?
The value was 83%.

What about the “patients reducing or eliminating need for narcotic analgesics” value [7, 10] of the same molecule?
The value was 68%.

What about the “patients with marked declines in markers of bone turnover” value [7, 10] of the same molecule?
The value was 60%.

And the “patients free of disease progression at month 6” value ([7]; patients with bone scan resolution (complete or partial))?
Its value is 61%.

What about the “patients achieving tumor regression” value [7, 11] of the same molecule?
Its value is 58%.

What about the “patients experiencing pain relief” value [7, 11] of the same molecule?
Its value is 43%.

What about the “patients reducing or eliminating need for narcotic analgesics” value [7, 11] of the same molecule?
Its value is 33%.

What about the “patients with marked declines in markers of bone turnover” value [7, 11] of the same molecule?
Its value is 43%.

And the “patients free of disease progression at month 6” value ([7]; patients without bone scan resolution (stable or progressing bone scan))?
The value was 35%.

And the “reduction in the risk of progression compared with placebo” value ([7]; randomized discontinuation phase)?
The value was 87%.

What about the “investigator-assessed median PFS from week 12 onward” value ([7]; randomized discontinuation phase, patients with SD at week 12, Compound 1 group n=14 (95% CI: 11 weeks, upper limit not yet reached)) of the same molecule?
Its value is 21 weeks.

What about the tolerability [8] of the same molecule?
The tolerability was “generally well-tolerated”.

And the bone scan analysis ([9]; one patient (FIG. 4))?
The bone scan analysis was “tumor shrinkage was observed”.

And the “narcotic use to control pain” value ([9]; same patient, by seven weeks, continued until week 25)?
The value was “substantially reduced narcotic use”.

And the pain ([9]; second patient, pain score 5 on a scale of 10 at baseline, by four weeks, pain-free as of week 73)?
The pain was “complete resolution of pain”.
